Results on six compounds are retold here after patent publication US20150299250A1, “MACROCYCLIC COMPOUNDS AND USES THEREOF” (ADELAIDE RESEARCH & INNOVATION PTY LTD, priority 2012, published 2015).

Where a SMILES comes first, the peptide text is derived from it. The star is where a group is joined. Cbz = O=C(OCc1ccccc1)* Where only a bound is given, the exact number is not on record here.

Series [1] has as its target T1, 20S proteasome T-L activity (Oryctolagus cuniculus, UniProt G1SWK8).
T1 construct: purchased Boston Biochem
T1 sequence (G1SWK8 1-271): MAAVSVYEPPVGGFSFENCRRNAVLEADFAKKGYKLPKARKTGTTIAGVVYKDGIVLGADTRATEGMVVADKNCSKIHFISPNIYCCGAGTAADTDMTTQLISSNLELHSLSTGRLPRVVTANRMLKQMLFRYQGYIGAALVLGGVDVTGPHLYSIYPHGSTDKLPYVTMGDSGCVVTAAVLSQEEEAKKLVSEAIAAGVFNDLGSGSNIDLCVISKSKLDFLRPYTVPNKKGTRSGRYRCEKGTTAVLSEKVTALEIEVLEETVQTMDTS
The series can be described thus: In vitro proteasome activity assay, T-L (Ac-RLR-AMC). It is filed as biochemical, rabbit. Conditions: purified 20S proteasome; highest concentration tested 25,000 nM. On the procedure:
The assays were performed in vitro using purified 20S proteasome/inhibitor mixtures, with the activity of each subunit of the proteasome assessed upon incubation with its respective target peptide.
Purified rabbit 20S proteasome and fluorogenic CT-L substrate (Suc-LLVY-AMC) were purchased from Boston Biochem (Cambridge, Mass., USA). The T-L and CP-L fluorogenic substrates (Ac-RLR-AMC and Z-nLPnLD-AMC) were purchased from Enzo Life Sciences (Farmingdale, N.Y., USA). The 20S proteasome was diluted to 0.2 μg/μL in 20S proteasome buffer (50 mM HEPES pH 7.6, 150 mM NaCl and 1 mM DDT) and stored at −80° C. Purified 20S proteasome (8 ng) was pre-incubated with the indicated concentrations of inhibitors for 15 minutes and subsequently added to the AMC-labeled substrate peptide (50 μM) in assay buffer (25 mM HEPES, pH 7.5, 0.5 mM EDTA, 0.05% NP-40, and 0.001% SDS (w/v)) at 37° C. for 2 hours.

Series [2] concerns WE-68 Ewing's sarcoma cells. The series can be described thus: Cell viability assay (7AAD, 48 hours), WE-68. It counts as cell-based. The following applies: 48 hours exposure; read-out: Cancer cell lines IC50 (μM) WE-68. On the procedure:
(§1) Cell viability assays were performed as previously described. Briefly, cells were seeded in 96 well microtiterplates at a density of 3×10^4 cells per well in the presence of the indicated chemical. Cells were harvested 48 hours post-treatment, centrifuged at 1,300×g, washed in phosphate-buffered saline (PBS) and stained with 7AAD solution (2 μg/mL) (7-amino-actinomycin-D, Invitrogen, Carlsbad, Calif.) for 10 mins at room temperature. Viable cells were determined with the use of a FACS Calibur flow cytometer (Becton Dickinson Immunocytometry Systems), and analyzed with the use of FLOWJO (Tree Star, Inc) and GraphPad Prism (GraphPad Software Inc).
(§2) WE-68 and VH-64 Ewing's sarcoma cells were kindly supplied by F. van Valen (Department of Orthopaedic Surgery, Westfalische-Wilhelms-University, Germany).TC-252 and STA-ET-1 Ewing's sarcoma cells were kindly provided by G. Hamilton (Department of Surgery, University of Vienna, Austria) or P. Ambros (Children's Cancer Research Institute, St Anna Children's Hospital, Vienna, Austria). Primary human embryonic fibroblasts or primary human osteoblasts were collected from the Women's and Children's Hospital (North Adelaide, South Australia, Australia) or Royal Adelaide Hospital with patient consent. Mouse Embryonic Fibroblasts (MEFs) and its p53-null derivative were kindly supplied by Guillermina Lozano (Department of Genetics, Anderson Cancer Centre, University of Texas, Houston, Tex., USA). WE-68 cell lines were grown in RPMI-1640 media, whilst human embryonic fibroblasts and MEFs were grown in Dulbecco's Modified Eagle's Medium (DMEM). Media was supplemented with 10% FCS, 1% PSG and 10 mM HEPES. All cells were maintained at 37° C. in a humidified atmosphere of 5% CO2.

The test system of series [3] is STA-ET-1 Ewing's sarcoma cells. The series can be described thus: Cell viability assay (7AAD, 48 hours), STA-ET-1. It is filed as cell-based. Conditions: 48 hours exposure; read-out: Cancer cell lines IC50 (μM) STA-ET-1. On the procedure: as §1, §2
The subject of series [4] is TC-252 Ewing's sarcoma cells. The series can be described thus: Cell viability assay (7AAD, 48 hours), TC-252. It is filed as cell-based. Conditions: 48 hours exposure; read-out: Cancer cell lines IC50 (μM) TC-252. On the procedure: as §1, §2
In series [5] the test system is primary human osteoblasts. As to the kind of experiment: Cell viability assay (7AAD, 48 hours), normal osteoblasts. The following applies: Osteoblast, 48 hours exposure, read-out: Normal cell lines IC50 (μM) Osteoblasts. It counts as cell-based. On the procedure: as §1, §2
In series [6] the test system is panel of sarcoma cell lines (WE-68, VH-64, STA-ET-1, TC-252). The series can be described thus: Cell viability assay, panel of four sarcoma cell lines (average). It counts as cell-based. The following applies: for IC50: average of four sarcoma cell lines, read-out: Average IC50 for cancer cell lines; for Therapeutic window: fold change in potency (IC50) against cancer cell line versus normal cell line. On the procedure:
as §1, §2

Series [7] deals with MEF p53-/- (mouse embryonic fibroblasts lacking p53). The series can be described thus: Cell viability assay, MEF p53-/-. It is filed as cell-based. The following applies: for sensitivity of MEFs lacking p53 (p53-/-) to cytotoxic effects (in words): compared with p53+/+ MEFs.
Description: Although proteasome inhibitors have been translated from the bench to the clinic over the past decade, their specific mechanisms of action remain poorly understood. As discussed earlier, proteasomal over-activity in tumor cells has been attributed to aberrant degradation of numerous critical cancer-related pro proteins, including the pro-apoptotic tumor suppressor, p53. However, the role of p53 as a downstream mediator of cell death in response to proteasomal inhibition remains unclear. Therefore, we used our small library of CT-L specific proteasome inhibitors (compounds 1-6) to determine the role of p53 in their mechanism of cytotoxic action. For this purpose, we utilized mouse embryonic fibroblasts (MEFs) from transgenic p53^+/+ and p53^−/− littermates. This isogenic pair of cell lines are either competent (MEF p53^+/+) or deficient (MEF p53^−/−) in p53 protein and are used here to assess a potential role for p53 as a downstream inducer of cell death in response to proteasomal inhibition.
as §1
WE-68 and VH-64 Ewing's sarcoma cells were kindly supplied by F. van Valen (Department of Orthopaedic Surgery, Westfalische-Wilhelms-University, Germany).TC-252 and STA-ET-1 Ewing's sarcoma cells were kindly provided by G. Hamilton (Department of Surgery, University of Vienna, Austria) or P. Ambros (Children's Cancer Research Institute, St Anna Children's Hospital, Vienna, Austria). […]

Another series concerns p53 protein. As to the kind of experiment: Western blot analysis of p53 protein expression in MEF p53+/+. It counts as cell-based, mouse. The following applies: MEFs p53+/+, 16 hours treatment. On the procedure: Dose-response curves are provided in Supplementary Figure S3. Compound 1 was not assayed using this system.
Western blot analyses were performed as previously described. Briefly, cells were harvested and lysed in 50 mM Tris-HCl (pH 7.5), 250 mM NaCl, 1 mM EDTA, 50 mM NaF, 0.5% TritonX-10, 0.5 mM Na3VO4 and 1× […] inhibitor (Roche, Indianapolis, Ind., USA). Lysates were incubated on ice for 8 minutes and sonicated using a Vibra-Cell VCX130 (Sonics & Materials, Inc) at 25% amplitude for 10 seconds. Protein concentrations were assayed with the bicinchoninic acid assay (Thermo Scientific, Massachusetts, USA) and subsequently resolved using a 10% SDS-PAGE gel. Proteins were transferred onto a nitrocellulose membrane (Hybond-C Extra, Amersham Biosciences), blocked (10% milk/TBST; 30 mins), hybridized with the appropriate primary or HRP-conjugated secondary antibody and subsequently visualized using Enhanced Chemiluminescence (Amersham Biosciences).
Antibodies used included a mouse anti-β-actin (Sigma), anti-p53 (1C12-mouse specific) (Cell Signalling, Danvers, Mass., USA), sheep anti-mouse IgG-HRP (Amersham Biosciences, Piscataway, N.J., USA), or donkey anti-rabbit IgG-HRP (Amersham Biosciences).
A general note: Immunoblotting shows a protein as a band on a membrane.

Regarding `C#CCOc1ccc(C[C@@H](C=O)NC(=O)[C@H](CC(C)C)NC(=O)[C@H](CCN=[N+]=[N-])NC(=O)OCc2ccccc2)cc1` [Compound 2], the IC50 in series [1] is over 25000 nM; in series [2], 4.7 µM; in series [3] it was 5.4 µM; in series [4] it was 2.3 µM; in series [5], 13.6 µM; in series [6], 4.3 µM. In addition, the Therapeutic window entry in series [6] is reported as “×5.0”.

For the compound `C#CCOc1ccc(C[C@@H](C=O)NC(=O)[C@H](CC(C)C)NC(=O)[C@H](CCCN=[N+]=[N-])NC(=O)OCc2ccccc2)cc1` [Compound 3], the IC50 in series [1] was over 25000 nM; in series [2], 0.47 µM; in series [3] it was 2.6 µM; in series [4], 1.2 µM; in series [5], 18.8 µM; in series [6] it was 1.6 µM. Besides, in series [6], the Therapeutic window result is listed as “×8.7”.

Regarding `C#CCOc1ccc(C[C@@H](C=O)NC(=O)[C@H](CC(C)C)NC(=O)[C@H](CCCCN=[N+]=[N-])NC(=O)OCc2ccccc2)cc1` [Compound 4], the IC50 in series [1] is over 25000 nM; in series [2], 10.8 µM; in series [3], 2.6 µM; in series [4], 1.6 µM; in series [5], 10.4 µM; in series [6] it was 4.2 µM. In addition, the Therapeutic window result in series [6] was “×5.9”.

In the case of `C#CCOc1ccc(C[C@@H](C=O)NC(=O)[C@@H](NC(=O)[C@H](CCCCN=[N+]=[N-])NC(=O)OCc2ccccc2)[C@@H](C)CC)cc1` [Compound 5], the IC50 was over 25000 nM in series [1]; 0.98 µM in series [2]; 1 µM in series [3]; 0.42 µM in series [4]; 4.8 µM in series [5]; 0.88 µM in series [6]. The “sensitivity of MEFs lacking p53 (p53-/-) to cytotoxic effects (in words)” value in series [7] was “resistant”. In series [6], the Therapeutic window result is recorded as “×14.1”.

For the compound `C#CCOc1ccc(C[C@@H](C=O)NC(=O)[C@H](CC(C)C)NC(=O)[C@H](Cc2ccc(N=[N+]=[N-])cc2)NC(=O)OCc2ccccc2)cc1` [Compound 6], the IC50 is over 25000 nM in series [1]; 1.1 µM in series [2]; 2.4 µM in series [3]; 0.64 µM in series [4]; 11.6 µM in series [5]; 1.5 µM in series [6]. The “sensitivity of MEFs lacking p53 (p53-/-) to cytotoxic effects (in words)” value in series [7] was “resistant”. The “more potency against cancer cells over normal cells” value in series [6] amounted to 19 fold. The Therapeutic window entry in series [6] is given as “×19.0”.

For the compound `CC(C)C[C@@H](C=O)NC(=O)[C@H](CC(C)C)NC(=O)[C@H](CC(C)C)NC(=O)OCc1ccccc1` [MG132, reference compound] (Cbz-Leu-Leu-Leu-aldehyde), the IC50 in series [1] came out at 2000 nM; in series [2], 0.68 µM; in series [3] it was 0.59 µM; in series [4] it was 0.49 µM; in series [5] it was 2.7 µM; in series [7] (Mus musculus, Fibroblast, read-out: IC50 in MEF p53-/-), 0.94 µM. In series [6], the IC50 amounted to 0.61 µM. For the same compound, the Therapeutic window entry in series [6] is reported as “×4.5”. Moreover, in the series on p53 protein, the p53 protein levels result is listed as “increase p53 protein levels”.
